We go through one compound from ChEMBL document CHEMBL1140941 (J Med Chem, 2009).

SMILES strings stand for the structures. Active and inactive are the calls of the source. The rule behind the calls is not given here.

Data set [1] has as its target T1, Androgen receptor (Homo sapiens) (UniProt P10275).
T1 sequence (whole entry): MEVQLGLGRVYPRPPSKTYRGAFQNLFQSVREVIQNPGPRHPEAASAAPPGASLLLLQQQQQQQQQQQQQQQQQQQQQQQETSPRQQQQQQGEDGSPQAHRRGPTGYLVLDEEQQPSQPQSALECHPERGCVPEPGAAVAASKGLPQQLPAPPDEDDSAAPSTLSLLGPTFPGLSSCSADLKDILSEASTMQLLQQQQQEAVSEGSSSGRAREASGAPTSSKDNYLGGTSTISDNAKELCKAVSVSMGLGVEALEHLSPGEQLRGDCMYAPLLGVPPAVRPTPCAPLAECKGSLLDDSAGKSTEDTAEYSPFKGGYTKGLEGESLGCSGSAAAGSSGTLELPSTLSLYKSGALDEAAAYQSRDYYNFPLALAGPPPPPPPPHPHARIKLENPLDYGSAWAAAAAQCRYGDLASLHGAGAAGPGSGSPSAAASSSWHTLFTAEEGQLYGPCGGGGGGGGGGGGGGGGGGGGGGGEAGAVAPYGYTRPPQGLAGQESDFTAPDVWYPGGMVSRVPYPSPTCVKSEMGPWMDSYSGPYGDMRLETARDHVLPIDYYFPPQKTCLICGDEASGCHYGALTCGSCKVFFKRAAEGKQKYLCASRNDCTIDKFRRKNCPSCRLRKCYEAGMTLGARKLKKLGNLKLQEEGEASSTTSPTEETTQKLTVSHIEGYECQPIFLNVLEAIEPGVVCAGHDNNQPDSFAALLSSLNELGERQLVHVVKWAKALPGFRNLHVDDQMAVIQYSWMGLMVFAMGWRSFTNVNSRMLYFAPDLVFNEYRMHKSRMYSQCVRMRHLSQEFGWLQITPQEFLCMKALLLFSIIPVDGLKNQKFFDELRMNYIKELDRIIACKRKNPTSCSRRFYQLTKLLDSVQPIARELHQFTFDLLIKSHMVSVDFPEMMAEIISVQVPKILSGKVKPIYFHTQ
The experiment in a line: Agonist activity at human gal-AR expressed in african green monkey CV1 cells co-expressing MH100 with pGRIP1 co-factor up to 10 uM by luciferase reporter gene assay relative to control. In kind it is functional, cell-based. The conditions noted are these: CV-1.

Another data set deals with Progesterone receptor (Homo sapiens, UniProt P06401). Description: Antagonist activity at gal-PR expressed in african green monkey CV1 cells co-expressing MH100 by luciferase reporter gene assay. In kind it is functional, cell-based, CV-1. (In general: In a reporter assay the amount or activity of a reporter protein is the signal.)
Sequence of Progesterone receptor (P06401 whole entry): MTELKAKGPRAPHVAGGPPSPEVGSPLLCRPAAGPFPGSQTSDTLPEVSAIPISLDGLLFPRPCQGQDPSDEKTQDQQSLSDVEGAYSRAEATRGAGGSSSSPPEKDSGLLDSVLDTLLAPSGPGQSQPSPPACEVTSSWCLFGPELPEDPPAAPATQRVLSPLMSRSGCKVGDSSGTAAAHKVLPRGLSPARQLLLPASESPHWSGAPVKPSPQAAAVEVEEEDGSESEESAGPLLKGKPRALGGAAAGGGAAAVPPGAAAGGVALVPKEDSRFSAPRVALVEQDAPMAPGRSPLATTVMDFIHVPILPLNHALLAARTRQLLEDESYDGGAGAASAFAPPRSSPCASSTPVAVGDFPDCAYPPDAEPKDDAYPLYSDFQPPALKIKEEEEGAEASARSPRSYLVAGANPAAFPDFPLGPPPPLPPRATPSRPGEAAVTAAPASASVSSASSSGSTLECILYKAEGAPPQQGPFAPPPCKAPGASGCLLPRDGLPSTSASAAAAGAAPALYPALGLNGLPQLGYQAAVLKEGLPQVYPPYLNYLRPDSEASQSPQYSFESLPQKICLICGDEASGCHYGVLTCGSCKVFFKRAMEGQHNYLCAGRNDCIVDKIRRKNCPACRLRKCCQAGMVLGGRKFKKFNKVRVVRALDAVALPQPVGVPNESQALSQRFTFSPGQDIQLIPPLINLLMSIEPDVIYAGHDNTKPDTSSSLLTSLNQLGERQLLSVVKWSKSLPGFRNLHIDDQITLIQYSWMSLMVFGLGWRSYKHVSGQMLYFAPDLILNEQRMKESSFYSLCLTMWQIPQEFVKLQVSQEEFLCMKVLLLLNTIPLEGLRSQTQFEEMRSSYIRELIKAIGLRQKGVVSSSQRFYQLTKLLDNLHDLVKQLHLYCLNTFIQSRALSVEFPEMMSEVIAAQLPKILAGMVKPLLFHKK
The target of data set [2] is Estrogen receptor beta (Homo sapiens) (UniProt Q92731). The experiment in a line: Agonist activity at gal-ERbeta expressed in african green monkey CV1 cells co-expressing MH100 by luciferase reporter gene assay. In kind it is functional, cell-based. The conditions noted are these: CV-1.
Sequence of Estrogen receptor beta (Homo sapiens) (Q92731 whole entry): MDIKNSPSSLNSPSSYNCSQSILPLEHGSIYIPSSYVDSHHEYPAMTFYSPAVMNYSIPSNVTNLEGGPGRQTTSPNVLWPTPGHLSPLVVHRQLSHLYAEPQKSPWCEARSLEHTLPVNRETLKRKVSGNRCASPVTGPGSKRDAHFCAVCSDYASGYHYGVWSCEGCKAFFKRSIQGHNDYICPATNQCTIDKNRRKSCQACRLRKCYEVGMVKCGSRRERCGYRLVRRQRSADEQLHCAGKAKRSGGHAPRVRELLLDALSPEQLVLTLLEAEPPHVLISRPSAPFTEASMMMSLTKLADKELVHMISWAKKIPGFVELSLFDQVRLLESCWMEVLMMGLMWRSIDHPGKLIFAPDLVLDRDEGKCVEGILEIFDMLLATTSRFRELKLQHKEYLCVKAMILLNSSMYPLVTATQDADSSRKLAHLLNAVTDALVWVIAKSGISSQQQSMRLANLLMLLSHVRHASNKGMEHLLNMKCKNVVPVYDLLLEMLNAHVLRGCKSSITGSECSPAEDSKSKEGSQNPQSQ
Data set [3] has as its target Nuclear receptor subfamily 1 group I member 2 (Homo sapiens, UniProt O75469). The experiment in a line: Agonist activity at SXR expressed in african green monkey CV1 cells co-expressing MH100 by luciferase reporter gene assay. As to conditions: cv-1. The class given is functional, cell-based.
A further data set has as its target Glucocorticoid receptor (Homo sapiens, UniProt P04150). Description: Antagonist activity at gal-GR expressed in african green monkey CV1 cells co-expressing MH100 by luciferase reporter gene assay. The class given is functional, cell-based, CV-1.
In data set [4] the target is T2, Mineralocorticoid receptor (Homo sapiens) (UniProt P08235).
T2 sequence (whole entry): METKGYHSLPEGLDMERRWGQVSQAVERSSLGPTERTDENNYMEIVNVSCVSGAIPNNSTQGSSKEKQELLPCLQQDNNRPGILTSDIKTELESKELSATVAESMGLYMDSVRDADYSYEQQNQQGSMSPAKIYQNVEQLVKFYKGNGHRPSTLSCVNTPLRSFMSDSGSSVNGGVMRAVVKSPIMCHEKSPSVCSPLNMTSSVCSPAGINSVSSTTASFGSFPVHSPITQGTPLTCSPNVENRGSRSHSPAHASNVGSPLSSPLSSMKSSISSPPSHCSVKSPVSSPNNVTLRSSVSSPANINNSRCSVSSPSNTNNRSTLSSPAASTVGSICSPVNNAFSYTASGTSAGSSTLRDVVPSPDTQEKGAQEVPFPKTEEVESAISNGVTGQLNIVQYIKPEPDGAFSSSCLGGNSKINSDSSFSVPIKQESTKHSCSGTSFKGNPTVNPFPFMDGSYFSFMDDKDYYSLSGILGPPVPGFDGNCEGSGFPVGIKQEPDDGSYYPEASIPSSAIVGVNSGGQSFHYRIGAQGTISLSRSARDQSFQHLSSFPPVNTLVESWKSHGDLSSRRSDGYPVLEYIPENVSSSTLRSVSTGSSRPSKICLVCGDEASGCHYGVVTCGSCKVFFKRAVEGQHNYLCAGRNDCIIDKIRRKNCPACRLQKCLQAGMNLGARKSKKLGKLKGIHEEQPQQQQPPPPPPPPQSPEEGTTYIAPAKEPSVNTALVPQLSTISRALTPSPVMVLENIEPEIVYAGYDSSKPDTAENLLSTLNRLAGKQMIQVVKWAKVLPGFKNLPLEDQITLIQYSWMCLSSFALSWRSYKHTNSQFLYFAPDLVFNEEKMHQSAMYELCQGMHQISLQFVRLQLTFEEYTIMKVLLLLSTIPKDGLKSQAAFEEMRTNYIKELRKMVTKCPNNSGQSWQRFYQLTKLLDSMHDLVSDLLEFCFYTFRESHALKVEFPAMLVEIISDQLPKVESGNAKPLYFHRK
The experiment in a line: Agonist activity at gal-MR expressed in african green monkey CV1 cells co-expressing MH100 up to 10 uM by luciferase reporter gene assay relative to control. The conditions noted are these: CV-1. The class given is functional, cell-based.

A short description of data set [5]: Volume of distribution in CD rat at 3 mg/kg, iv. The class given is ADME, organism-based. On the set-up: dose 3 mg/kg, route intravenous. The conditions noted are these: in vivo, read-out: Vdss.
Another data set has as its system Mus musculus. Description: Reduction of plasma total cholesterol level in western diet-induced hyperlipidemia LDLR knockout mouse model at 3 mg/kg, po administered for 6 weeks. In kind it is functional. On the set-up: scale not given: the % may be the effect or the level left.
Data set [6] has as its target T3, Bile acid receptor (Homo sapiens) (UniProt Q96RI1).
T3 sequence (whole entry): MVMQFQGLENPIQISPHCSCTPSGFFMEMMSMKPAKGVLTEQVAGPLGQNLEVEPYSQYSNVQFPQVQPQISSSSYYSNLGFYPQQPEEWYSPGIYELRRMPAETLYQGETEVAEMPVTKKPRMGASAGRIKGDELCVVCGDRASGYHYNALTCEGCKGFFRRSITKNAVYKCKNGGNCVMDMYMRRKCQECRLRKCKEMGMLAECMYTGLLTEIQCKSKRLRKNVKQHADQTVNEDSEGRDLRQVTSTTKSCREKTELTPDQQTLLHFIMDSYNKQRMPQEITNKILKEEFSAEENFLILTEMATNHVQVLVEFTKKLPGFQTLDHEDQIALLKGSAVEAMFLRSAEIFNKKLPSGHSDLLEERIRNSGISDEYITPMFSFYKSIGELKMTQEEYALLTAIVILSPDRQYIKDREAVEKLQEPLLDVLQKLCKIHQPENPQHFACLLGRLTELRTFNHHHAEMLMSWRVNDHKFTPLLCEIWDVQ
Description: Antagonist activity at human FXR expressed in african green monkey CV1 cells co-expressing RXRE with RXR co-factor by luciferase reporter gene assay. The conditions noted are these: CV-1. In kind it is functional, cell-based.

Data set [7] in a line: Clearance in CD rat at 3 mg/kg, iv. In kind it is ADME, organism-based. On the set-up: dose 3 mg/kg, route intravenous. The conditions noted are these: in vivo.

Sequence of Nuclear receptor subfamily 1 group I member 2 (O75469 whole entry): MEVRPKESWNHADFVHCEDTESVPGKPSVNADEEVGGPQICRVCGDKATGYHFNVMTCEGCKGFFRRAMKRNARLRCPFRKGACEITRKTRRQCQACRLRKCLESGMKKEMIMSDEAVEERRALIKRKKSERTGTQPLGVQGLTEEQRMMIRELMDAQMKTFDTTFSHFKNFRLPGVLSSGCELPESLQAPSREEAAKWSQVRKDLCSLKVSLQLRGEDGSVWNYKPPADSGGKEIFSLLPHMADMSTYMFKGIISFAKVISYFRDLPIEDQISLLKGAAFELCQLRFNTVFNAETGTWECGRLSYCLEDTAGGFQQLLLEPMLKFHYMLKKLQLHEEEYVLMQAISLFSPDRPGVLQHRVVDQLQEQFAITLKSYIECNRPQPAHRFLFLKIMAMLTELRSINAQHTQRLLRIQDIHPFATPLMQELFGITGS
Sequence of Glucocorticoid receptor (P04150 whole entry): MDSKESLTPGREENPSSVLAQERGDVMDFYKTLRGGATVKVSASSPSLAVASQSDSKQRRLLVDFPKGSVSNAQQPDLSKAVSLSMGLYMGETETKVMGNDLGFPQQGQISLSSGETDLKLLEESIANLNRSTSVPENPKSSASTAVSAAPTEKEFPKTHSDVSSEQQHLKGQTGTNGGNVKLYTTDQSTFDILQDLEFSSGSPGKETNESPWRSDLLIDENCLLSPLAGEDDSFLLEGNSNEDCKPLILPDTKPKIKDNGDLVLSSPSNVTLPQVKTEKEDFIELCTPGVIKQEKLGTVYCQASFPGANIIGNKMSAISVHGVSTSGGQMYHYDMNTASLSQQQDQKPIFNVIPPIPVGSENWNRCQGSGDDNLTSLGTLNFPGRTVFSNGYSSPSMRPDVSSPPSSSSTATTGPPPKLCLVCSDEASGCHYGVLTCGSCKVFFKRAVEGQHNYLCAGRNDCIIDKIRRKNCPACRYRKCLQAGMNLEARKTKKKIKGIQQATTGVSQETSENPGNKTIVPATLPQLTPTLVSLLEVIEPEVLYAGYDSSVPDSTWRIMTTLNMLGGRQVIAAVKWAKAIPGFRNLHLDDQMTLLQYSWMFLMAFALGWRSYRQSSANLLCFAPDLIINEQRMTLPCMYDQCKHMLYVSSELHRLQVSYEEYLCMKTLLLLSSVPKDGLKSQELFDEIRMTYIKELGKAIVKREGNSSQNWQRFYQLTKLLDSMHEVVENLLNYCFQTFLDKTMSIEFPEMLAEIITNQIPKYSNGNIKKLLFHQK

What is called IC50 is the concentration needed to halve the response being measured. A word on the clearance: it is the rate of elimination divided by the concentration. For `CC(C)OC(=O)C1=CN(C(=O)c2ccc(F)c(F)c2)CC(C)(C)c2c1[nH]c1ccccc21` [TUROFEXORATE ISOPROPYL], the outcome in data set [1], in data set [2], in data set [4] and in data set [6] was inactive. For the same compound, the IC50 against Progesterone receptor and against Glucocorticoid receptor was 10 µM throughout. For the same compound, the Activity result is reported as “Not Active” in [3] and 50% in the data set with Mus musculus. Moreover, in data set [5], the Vd turned out to be 3.3 L/kg. In [7], the clearance was 5.68 mL/min/kg.
